ChEMBL document CHEMBL4507276 (2021)

Experiments:
[1] = molecular target: Epidermal growth factor receptor (Homo sapiens) (UniProt P00533); details: Compound concentration 1000.0 nM
[2] = molecular target: Cyclin-dependent kinase 16 (Homo sapiens) (UniProt Q00536); details: Compound concentration 1000.0 nM
[3] = molecular target: Mitotic checkpoint serine/threonine-protein kinase BUB1 (Homo sapiens) (UniProt O43683); details: Compound concentration 1000.0 nM
[4] = molecular target: T1, TGF-beta receptor type-1 (Homo sapiens) (UniProt P36897); details: Compound concentration 1000.0 nM
T1 sequence (whole entry): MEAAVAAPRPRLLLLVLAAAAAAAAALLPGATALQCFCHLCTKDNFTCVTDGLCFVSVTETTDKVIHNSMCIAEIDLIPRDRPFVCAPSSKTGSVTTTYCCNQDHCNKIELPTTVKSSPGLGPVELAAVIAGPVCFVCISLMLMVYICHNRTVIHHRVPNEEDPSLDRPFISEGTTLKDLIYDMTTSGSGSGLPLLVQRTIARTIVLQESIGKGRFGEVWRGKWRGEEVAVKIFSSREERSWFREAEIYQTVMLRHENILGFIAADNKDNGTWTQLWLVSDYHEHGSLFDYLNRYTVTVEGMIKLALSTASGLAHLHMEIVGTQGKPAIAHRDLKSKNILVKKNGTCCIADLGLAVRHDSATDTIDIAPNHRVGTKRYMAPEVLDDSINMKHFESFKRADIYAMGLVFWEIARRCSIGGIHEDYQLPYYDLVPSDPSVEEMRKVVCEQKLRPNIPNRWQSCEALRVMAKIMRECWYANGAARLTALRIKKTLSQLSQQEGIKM

[5] = molecular target: Phosphatidylinositol 3-kinase C2 domain-containing subunit gamma (Homo sapiens) (UniProt O75747); details: Compound concentration 1000.0 nM
[6] = molecular target: Ribosomal protein S6 kinase alpha-2 (Homo sapiens) (UniProt Q15349); details: Compound concentration 1000.0 nM
[7] = molecular target: STE20/SPS1-related proline-alanine-rich protein kinase (Homo sapiens) (UniProt Q9UEW8); details: Compound concentration 1000.0 nM
[8] = molecular target: Mitogen-activated protein kinase 1 (Homo sapiens) (UniProt P28482); details: Compound concentration 1000.0 nM
[9] = molecular target: Misshapen-like kinase 1 (Homo sapiens) (UniProt Q8N4C8); details: Compound concentration 1000.0 nM
[10] = molecular target: Cyclin-dependent kinase 13 (Homo sapiens) (UniProt Q14004); details: Compound concentration 1000.0 nM
[11] = molecular target: BMP-2-inducible protein kinase (Homo sapiens) (UniProt Q9NSY1); details: Compound concentration 1000.0 nM
[12] = system: Epidermal growth factor receptor (Homo sapiens), P00533 [L861Q]; details: Compound concentration 1000.0 nM
[13] = molecular target: Casein kinase I isoform alpha (Homo sapiens) (UniProt P48729); details: Compound concentration 1000.0 nM
[14] = molecular target: T2, 5-hydroxytryptamine receptor 3A (Homo sapiens) (UniProt P46098); details: Compound concentration 10.0 uM
T2 sequence (whole entry): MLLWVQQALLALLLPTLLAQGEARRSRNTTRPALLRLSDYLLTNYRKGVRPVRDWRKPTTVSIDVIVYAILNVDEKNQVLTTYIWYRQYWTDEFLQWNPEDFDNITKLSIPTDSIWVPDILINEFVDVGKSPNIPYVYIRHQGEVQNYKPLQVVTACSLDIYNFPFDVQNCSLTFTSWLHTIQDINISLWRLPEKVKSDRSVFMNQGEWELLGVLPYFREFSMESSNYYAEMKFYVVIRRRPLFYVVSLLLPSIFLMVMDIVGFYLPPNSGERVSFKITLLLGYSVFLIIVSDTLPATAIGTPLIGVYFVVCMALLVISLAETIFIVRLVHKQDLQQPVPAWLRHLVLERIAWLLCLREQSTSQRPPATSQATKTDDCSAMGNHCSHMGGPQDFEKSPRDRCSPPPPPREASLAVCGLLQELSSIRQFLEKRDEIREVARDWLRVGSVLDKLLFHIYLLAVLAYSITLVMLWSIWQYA

[15] = molecular target: Tyrosine-protein kinase BTK (Homo sapiens) (UniProt Q06187); details: Compound concentration 1000.0 nM
[16] = molecular target: T3, Serine/threonine-protein kinase haspin (Homo sapiens) (UniProt Q8TF76); details: Compound concentration 1000.0 nM
T3 sequence (whole entry): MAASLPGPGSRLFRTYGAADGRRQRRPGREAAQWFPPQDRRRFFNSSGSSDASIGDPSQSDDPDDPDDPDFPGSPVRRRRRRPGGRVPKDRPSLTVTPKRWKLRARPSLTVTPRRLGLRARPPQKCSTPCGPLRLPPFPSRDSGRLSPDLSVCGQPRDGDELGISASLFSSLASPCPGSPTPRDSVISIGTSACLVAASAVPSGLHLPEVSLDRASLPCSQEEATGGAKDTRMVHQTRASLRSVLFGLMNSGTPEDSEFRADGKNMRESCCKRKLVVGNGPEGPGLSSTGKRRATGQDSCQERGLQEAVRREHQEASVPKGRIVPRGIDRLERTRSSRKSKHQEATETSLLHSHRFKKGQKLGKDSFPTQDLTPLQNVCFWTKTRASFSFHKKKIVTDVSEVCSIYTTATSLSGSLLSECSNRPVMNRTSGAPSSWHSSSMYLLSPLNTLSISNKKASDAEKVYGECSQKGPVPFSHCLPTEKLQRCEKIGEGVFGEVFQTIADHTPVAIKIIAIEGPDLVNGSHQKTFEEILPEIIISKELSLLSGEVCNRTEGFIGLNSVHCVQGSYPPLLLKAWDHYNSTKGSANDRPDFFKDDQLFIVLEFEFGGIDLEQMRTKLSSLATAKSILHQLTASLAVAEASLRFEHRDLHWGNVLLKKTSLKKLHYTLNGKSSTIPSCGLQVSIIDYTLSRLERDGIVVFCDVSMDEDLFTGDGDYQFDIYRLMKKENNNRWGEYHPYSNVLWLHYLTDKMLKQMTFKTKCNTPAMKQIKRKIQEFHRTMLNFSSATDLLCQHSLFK

[17] = molecular target: Tyrosine-protein kinase Lyn (Homo sapiens) (UniProt P07948); details: Compound concentration 1000.0 nM
[18] = molecular target: Microtubule-associated serine/threonine-protein kinase 1 (Homo sapiens) (UniProt Q9Y2H9); details: Compound concentration 1000.0 nM
[19] = molecular target: Dual specificity protein kinase CLK3 (Homo sapiens) (UniProt P49761); details: Compound concentration 1000.0 nM
[20] = molecular target: Cyclin-dependent kinase-like 5 (Homo sapiens) (UniProt O76039); details: Compound concentration 1000.0 nM
[21] = system: Receptor-type tyrosine-protein kinase FLT3 (Homo sapiens), P36888 [D835V]; details: Compound concentration 1000.0 nM

Sequence of Cyclin-dependent kinase 13 (Homo sapiens) (Q14004 whole entry, looked up): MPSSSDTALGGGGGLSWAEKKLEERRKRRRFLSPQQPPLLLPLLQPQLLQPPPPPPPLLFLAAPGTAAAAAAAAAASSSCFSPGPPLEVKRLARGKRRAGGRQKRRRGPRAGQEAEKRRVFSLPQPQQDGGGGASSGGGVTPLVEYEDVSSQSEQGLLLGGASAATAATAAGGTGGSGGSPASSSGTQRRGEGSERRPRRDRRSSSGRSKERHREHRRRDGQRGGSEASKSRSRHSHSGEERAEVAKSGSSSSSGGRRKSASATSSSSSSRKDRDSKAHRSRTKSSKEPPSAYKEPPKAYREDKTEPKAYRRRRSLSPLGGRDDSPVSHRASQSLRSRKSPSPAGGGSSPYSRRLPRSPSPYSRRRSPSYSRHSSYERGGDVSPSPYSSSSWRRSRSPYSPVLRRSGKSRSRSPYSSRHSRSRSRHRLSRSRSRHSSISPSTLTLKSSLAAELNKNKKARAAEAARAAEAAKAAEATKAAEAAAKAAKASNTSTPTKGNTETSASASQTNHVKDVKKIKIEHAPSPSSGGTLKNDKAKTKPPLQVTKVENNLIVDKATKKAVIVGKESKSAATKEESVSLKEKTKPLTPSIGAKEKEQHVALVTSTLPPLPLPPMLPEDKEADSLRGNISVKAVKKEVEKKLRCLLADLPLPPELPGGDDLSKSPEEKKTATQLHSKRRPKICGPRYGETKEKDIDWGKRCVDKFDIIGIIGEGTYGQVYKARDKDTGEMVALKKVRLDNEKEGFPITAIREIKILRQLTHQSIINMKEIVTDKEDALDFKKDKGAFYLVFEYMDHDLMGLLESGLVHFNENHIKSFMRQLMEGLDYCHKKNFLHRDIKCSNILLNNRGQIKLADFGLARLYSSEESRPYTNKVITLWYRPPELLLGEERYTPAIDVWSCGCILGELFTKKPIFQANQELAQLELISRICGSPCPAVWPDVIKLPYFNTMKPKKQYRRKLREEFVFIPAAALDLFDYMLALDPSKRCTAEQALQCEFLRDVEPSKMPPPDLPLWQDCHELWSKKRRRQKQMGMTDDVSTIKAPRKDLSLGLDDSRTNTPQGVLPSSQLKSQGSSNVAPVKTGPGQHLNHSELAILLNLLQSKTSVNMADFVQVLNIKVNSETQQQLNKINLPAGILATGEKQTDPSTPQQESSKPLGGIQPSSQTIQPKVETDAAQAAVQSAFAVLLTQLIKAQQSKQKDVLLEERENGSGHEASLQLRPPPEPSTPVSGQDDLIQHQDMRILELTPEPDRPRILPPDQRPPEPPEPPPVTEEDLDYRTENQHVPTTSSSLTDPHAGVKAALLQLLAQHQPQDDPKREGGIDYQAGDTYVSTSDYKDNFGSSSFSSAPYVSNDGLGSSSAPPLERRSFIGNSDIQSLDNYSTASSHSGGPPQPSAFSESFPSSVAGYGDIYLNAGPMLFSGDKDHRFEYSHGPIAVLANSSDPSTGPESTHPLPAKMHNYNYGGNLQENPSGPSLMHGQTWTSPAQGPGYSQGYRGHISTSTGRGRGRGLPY
Sequence of Ribosomal protein S6 kinase alpha-2 (Homo sapiens) (Q15349 whole entry): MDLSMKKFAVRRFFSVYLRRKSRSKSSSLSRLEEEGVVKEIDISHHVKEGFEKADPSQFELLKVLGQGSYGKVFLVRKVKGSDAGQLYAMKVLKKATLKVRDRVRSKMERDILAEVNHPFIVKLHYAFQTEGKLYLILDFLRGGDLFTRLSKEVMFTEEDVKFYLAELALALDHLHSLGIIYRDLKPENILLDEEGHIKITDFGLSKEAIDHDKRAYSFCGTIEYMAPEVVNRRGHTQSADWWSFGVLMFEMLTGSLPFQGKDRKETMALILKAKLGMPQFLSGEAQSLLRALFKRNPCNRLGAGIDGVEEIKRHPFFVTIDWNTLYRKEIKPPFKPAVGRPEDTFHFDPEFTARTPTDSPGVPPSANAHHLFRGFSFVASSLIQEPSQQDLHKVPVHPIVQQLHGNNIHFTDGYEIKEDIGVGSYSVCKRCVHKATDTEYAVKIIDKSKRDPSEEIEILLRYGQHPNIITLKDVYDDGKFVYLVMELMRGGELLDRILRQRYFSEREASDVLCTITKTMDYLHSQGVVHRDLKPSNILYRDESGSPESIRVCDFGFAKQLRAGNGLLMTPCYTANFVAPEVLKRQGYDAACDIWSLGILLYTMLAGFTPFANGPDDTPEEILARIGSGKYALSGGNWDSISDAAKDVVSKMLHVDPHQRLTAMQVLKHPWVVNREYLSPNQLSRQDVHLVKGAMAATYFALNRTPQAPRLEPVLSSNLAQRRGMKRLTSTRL
Sequence of Tyrosine-protein kinase BTK (Homo sapiens) (Q06187 whole entry): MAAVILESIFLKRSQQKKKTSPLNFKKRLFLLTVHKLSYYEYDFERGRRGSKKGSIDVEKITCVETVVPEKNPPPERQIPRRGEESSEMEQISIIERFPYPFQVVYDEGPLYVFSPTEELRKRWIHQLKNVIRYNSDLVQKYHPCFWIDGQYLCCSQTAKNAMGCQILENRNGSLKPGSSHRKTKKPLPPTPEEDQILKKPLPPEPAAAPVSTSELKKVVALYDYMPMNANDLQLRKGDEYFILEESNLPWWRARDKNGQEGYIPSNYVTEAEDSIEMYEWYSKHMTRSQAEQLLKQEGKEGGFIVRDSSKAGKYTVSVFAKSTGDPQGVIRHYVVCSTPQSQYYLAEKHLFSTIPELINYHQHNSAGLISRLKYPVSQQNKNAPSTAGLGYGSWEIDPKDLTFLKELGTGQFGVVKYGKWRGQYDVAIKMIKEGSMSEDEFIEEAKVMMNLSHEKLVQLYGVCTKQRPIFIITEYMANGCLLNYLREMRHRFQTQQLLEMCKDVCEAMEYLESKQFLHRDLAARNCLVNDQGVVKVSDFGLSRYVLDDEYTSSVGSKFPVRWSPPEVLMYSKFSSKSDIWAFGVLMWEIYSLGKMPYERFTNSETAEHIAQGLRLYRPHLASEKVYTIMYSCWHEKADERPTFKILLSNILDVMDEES
Sequence of Cyclin-dependent kinase 16 (Homo sapiens) (Q00536 whole entry): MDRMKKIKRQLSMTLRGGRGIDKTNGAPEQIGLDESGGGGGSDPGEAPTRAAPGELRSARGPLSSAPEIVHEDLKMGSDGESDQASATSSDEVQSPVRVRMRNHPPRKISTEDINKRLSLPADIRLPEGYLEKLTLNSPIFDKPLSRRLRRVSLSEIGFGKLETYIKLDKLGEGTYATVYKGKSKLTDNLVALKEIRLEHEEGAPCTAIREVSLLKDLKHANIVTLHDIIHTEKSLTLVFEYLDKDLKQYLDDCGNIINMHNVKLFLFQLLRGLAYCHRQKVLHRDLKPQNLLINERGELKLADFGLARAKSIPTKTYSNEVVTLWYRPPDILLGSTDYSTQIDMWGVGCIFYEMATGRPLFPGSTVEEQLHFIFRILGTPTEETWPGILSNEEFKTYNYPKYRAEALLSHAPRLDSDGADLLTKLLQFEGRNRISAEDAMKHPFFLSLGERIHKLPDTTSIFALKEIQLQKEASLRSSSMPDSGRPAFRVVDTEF
Sequence of Mitotic checkpoint serine/threonine-protein kinase BUB1 (Homo sapiens) (O43683 whole entry, looked up): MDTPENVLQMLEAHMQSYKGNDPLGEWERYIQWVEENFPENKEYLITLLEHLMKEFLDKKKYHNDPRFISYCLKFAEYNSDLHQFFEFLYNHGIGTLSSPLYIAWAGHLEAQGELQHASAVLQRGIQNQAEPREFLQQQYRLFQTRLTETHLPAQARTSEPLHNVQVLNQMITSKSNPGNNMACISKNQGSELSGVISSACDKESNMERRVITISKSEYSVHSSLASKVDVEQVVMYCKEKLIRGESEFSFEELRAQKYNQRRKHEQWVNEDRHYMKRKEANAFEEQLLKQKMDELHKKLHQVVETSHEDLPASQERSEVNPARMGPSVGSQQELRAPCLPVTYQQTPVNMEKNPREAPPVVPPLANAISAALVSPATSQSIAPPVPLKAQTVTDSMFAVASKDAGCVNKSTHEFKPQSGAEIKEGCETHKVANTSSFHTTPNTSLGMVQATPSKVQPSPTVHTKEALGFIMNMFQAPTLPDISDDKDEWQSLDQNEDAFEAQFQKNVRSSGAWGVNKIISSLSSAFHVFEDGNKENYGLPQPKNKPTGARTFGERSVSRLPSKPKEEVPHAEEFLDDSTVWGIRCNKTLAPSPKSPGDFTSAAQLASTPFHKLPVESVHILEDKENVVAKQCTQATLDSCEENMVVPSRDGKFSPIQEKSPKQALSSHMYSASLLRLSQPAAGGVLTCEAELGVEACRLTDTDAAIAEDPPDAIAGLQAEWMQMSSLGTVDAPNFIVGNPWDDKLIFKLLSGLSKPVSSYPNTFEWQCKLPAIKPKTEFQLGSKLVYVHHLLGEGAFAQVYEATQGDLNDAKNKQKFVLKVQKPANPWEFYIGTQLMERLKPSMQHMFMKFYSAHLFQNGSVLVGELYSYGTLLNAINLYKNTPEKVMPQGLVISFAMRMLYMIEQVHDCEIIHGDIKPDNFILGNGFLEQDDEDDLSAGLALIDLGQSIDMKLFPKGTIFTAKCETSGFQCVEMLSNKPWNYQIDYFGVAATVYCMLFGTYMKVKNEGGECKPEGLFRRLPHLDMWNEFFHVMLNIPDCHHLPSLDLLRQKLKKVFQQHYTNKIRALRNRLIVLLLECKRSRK
Sequence of Dual specificity protein kinase CLK3 (Homo sapiens) (P49761 whole entry, looked up): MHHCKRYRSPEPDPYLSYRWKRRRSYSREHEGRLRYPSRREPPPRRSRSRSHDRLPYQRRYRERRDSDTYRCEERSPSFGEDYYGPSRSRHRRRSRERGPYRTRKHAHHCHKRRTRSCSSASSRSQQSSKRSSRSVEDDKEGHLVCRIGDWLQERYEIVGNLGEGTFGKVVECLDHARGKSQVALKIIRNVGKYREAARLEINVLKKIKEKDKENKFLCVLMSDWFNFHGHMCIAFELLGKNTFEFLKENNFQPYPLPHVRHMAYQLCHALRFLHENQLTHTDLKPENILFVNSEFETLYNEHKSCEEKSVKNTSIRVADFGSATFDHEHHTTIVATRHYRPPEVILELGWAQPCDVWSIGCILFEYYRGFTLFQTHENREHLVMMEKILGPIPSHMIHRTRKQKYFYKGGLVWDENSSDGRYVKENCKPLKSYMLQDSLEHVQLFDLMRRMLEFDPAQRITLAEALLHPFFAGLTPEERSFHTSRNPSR

CN(C)C(=O)Cn1cc(-c2nc(C3(c4ccc(-c5cnc(N)nc5)cc4)CC3)no2)cn1 [BI 0153]
residual activity [1]: 93%
residual activity [2]: 80%
residual activity [3]: 75%
residual activity [4]: 97%
residual activity [5]: 76%
residual activity [6]: 100%
residual activity [7]: 100%
residual activity [8]: 81%
residual activity [9]: 91%
residual activity [10]: 91%
residual activity [11]: 99%
residual activity [12]: 100%
residual activity [13]: 62%
inhibition [14]: -8.52%
residual activity [15]: 82%
residual activity [16]: 74%
residual activity [17]: 79%
residual activity [18]: 100%
residual activity [19]: 100%
residual activity [20]: 82%
residual activity [21]: 49%

CN(C)C(=O)Cn1cc(-c2nc([C@@](C)(c3ccc(-c4cnc(N)nc4)cc3)C3CC3)no2)cn1 [BI 665915]
residual activity [1]: 93%
residual activity [2]: 86%
residual activity [3]: 75%
residual activity [4]: 100%
residual activity [5]: 66%
residual activity [6]: 85%
residual activity [7]: 81%
residual activity [8]: 100%
residual activity [9]: 85%
residual activity [10]: 83%
residual activity [11]: 100%
residual activity [12]: 100%
residual activity [13]: 100%
inhibition [14]: -2.76%
residual activity [15]: 73%
residual activity [16]: 100%
residual activity [17]: 87%
residual activity [18]: 97%
residual activity [19]: 100%
residual activity [20]: 89%
residual activity [21]: 72%
